From US8883835B2, “Plant disease controlling composition and method for controlling plant disease” (priority 2008, dated 2014)

Test system: Sclerotinia sclerotiorum
Assay: Controlling test against Sclerotinia sclerotiorum on cucumber by foliage spraying (Test Example 1)
Format: in vivo
Conditions: single compound, 12° C. and high humidity for 6 days
Experimental: A sand loam was filled into a plastic pot, and cucumber (Sagamihanjiro) was seeded, and grown in a greenhouse for 12 days. A flowable of the compound I, and an emulsifiable concentrate of any one of the compound II to the compound IV were diluted with water separately, and they were tank-mixed to prepare a tank mix solution containing the compound I and any one of the compounds II to IV at predetermined concentrations. The tank mix solution was subjected to foliage spraying so that it was sufficiently adhered to a leaf surface of the cucumber. After spraying, the plant was air-dried, and a PDA medium containing hyphae of Sclerotinia sclerotiorum was placed on the cucumber leaf surface. After seeding, this was placed under 12° C. and high humidity for 6 days, the controlling effect was investigated. Separately, for comparison, a flowable of the compound I, or an emulsifiable concentrate of any one compound of the compound II to the compound IV was diluted with water to prepare a water-diluted solution containing the predetermined amount of any one of compounds I to IV, and the similar controlling test was carried out. Further, for calculating an effective value, an onset area rate (ratio of onset area occupied in leaf area examined) in each treatment group was determined. The effective value was calculated by the Equation 1. […] A: Onset area rate of non-treated group B: Onset area rate of treated group In general, a effective value expected in treatment by mixing given two kinds of active ingredient compounds, i.e., an expected effective value is calculated by a Colby calculation equation of the Equation 2. E=X+Y−(X×Y)/100 “Equation 2” X: Effective value obtained by treatment with M ppm of the compound I Y: Effective value obtained by treatment with N ppm of the compound II, III or IV E: Effective value expected in treatment with M ppm of the compound I and N ppm of the compound II, III or IV (expected effective value) In addition, a synergistic effect was shown herein by a value calculated by the following Equation 3.

[1] = active ingredient concentration 3.1 ppm

Row | SMILES | Actual effective value [1] | Actual effective value (active ingredient concentration 0.8 ppm)
1 | Fc1ccc([C@]2(Cn3cncn3)O[C@H]2c2ccccc2Cl)cc1 (racemic) [Compound IV, (2RS,3SR)-1-[3-(2-chlorophenyl)-2,3-epoxy-2-(4-fluorophenyl)propyl]-1H-1,2,4-triazole] | 6% | –
2 | CC1(C)CCC(Cc2ccc(Cl)cc2)C1(O)Cn1cncn1 (stereo not drawn) [Compound II, (1RS,5RS;1RS,5SR)-5-(4-chlorobenzyl)-2,2-dimethyl-1-(1H-1,2,4-triazol-1-ylmethyl)cyclopentanol] | 5% | 0%
3 | Clc1ccc(C2(Cn3cncn3)CC(Br)CO2)c(Cl)c1 (stereo not drawn) [Compound III, 1-[(2RS,4RS:2RS,4SR)-4-bromo-2-(2,4-dichlorophenyl)tetrahydrofurfuryl]-1H-1,2,4-triazole] | 1% | –
4 | C=CCSC(=O)n1c(N)c(-c2ccccc2C)c(=O)n1C(C)C [Compound I] | 58% | –
